Like-named read-outs stand apart in the source and are kept apart here.
Key:
[1] = target: West Nile Virus (WNV) NS2B-NS3 protease (West Nile virus (WNV), UniProt P06935); experiment: WNV Protease Inhibition Assay; format: biochemical
Description: WNV Protease Inhibition Assay

[2] = system: ZIKV replicon in Vero cells; experiment: ZIKV Replication Inhibition Assay (replicon, NanoLuc); settings: 72 h, read-out: Zika Replicon EC50
[3] = 2 nM protease, 10 μM pERTKR-AMC substrate, read-out: WNV Protease IC50

Chain of West Nile Virus (WNV) NS2B-NS3 protease (P06935 1502-1679 limits assumed): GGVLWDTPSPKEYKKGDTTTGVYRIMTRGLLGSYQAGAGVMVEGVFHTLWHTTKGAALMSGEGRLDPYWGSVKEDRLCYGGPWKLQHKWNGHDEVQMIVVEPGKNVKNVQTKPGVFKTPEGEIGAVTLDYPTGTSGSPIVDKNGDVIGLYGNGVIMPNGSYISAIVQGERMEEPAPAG
Chain of West Nile Virus (WNV) NS2B-NS3 protease (P06935 1371-1501 partner limits assumed): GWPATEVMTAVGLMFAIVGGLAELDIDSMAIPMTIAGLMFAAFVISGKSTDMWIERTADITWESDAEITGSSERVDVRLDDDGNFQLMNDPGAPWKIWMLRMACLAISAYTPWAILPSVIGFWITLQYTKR

Row | Compound | IC50 [1, 3] [nM] | EC50 ([2]; Zika virus, Vero) [nM] | IC50 [1] [nM] | IC50 ([1]; read-out: WNV Protease IC50, 2 nM protease, 10 μM pERTKR-AMC substrate) [nM] | EC50 ([2]; Vero cell line with stable ZIKV replicon, Nano-Glo) [nM]
1 | Cc1noc(C)c1-c1ccc(C[n+]2cc([N-]C(=O)Nc3ccnc(C(F)(F)F)c3)on2)nc1 [Example 152, (3-((5-(3,5-dimethylisoxazol-4-yl)pyridin-2-yl)methyl)-1,2,3-oxadiazol-3-ium-5-yl)((2-(trifluoromethyl)pyridin-4-yl)carbamoyl)amide] | < 100 | < 100 |  |  | 
2 | O=C([N-]c1c[n+](Cc2ccc(-c3cccnc3Cl)cn2)no1)Nc1cccc(C(F)(F)F)c1 [Example 172, (3-((2′-chloro-[3,3′-bipyridin]-6-yl)methyl)-1,2,3-oxadiazol-3-ium-5-yl)((3-(trifluoromethyl)phenyl)carbamoyl)amide] |  | < 100 | 100 to 1000 |  | 
3 | O=C([N-]c1c[n+](Cc2ccc(-c3ccnnc3)cn2)no1)Nc1cccc(C(F)(F)F)c1 [Example 160, (3-((5-(pyridazin-4-yl)pyridin-2-yl)methyl)-1,2,3-oxadiazol-3-ium-5-yl)((3-(trifluoromethyl)phenyl)carbamoyl)amide] | < 100 | 100 to 1000 |  |  | 
4 | N#Cc1ncncc1-c1ccc(C[n+]2cc([N-]C(=O)Nc3cccc(C(F)(F)F)c3)on2)nc1 [Example 148, (3-((5-(4-cyanopyrimidin-5-yl)pyridin-2-yl)methyl)-1,2,3-oxadiazol-3-ium-5-yl)((3-(trifluoromethyl)phenyl)carbamoyl)amide] | < 100 | 100 to 1000 |  |  | 
5 | Cc1ccncc1-c1ccc(C[n+]2cc([N-]C(=O)Nc3cncc(C(F)(F)F)c3)on2)nc1 [Example 149, (3-((4′-methyl-[3,3′-bipyridin]-6-yl)methyl)-1,2,3-oxadiazol-3-ium-5-yl)((5-(trifluoromethyl)pyridin-3-yl)carbamoyl)amide] |  | 100 to 1000 | 100 to 1000 |  | 
6 | O=C([N-]c1c[n+](Cc2ccc(-c3cnoc3)cc2)no1)Nc1cccc(C(F)(F)F)c1 [Example 48, (3-(4-(isoxazol-4-yl)benzyl)-1,2,3-oxadiazol-3-ium-5-yl)((3-(trifluoromethyl)phenyl)carbamoyl)amide] |  | 100 to 1000 | 100 to 1000 |  | 
7 | Cc1ccncc1-c1ccc(C[n+]2cc([N-]C(=O)Nc3cccc(C(F)(F)F)c3)on2)nc1 [Example 139, (3-((4′-methyl-[3,3′-bipyridin]-6-yl)methyl)-1,2,3-oxadiazol-3-ium-5-yl)((3-(trifluoromethyl)phenyl)carbamoyl)amide] | < 100 | < 100 |  |  | 
8 | COc1ncc(-c2cccc(C[n+]3cc([N-]C(=O)Nc4cccc(C(F)(F)F)c4)on3)c2)cn1 [Example 53, (3-(3-(2-methoxypyrimidin-5-yl)benzyl)-1,2,3-oxadiazol-3-ium-5-yl)((3-(trifluoromethyl)phenyl)carbamoyl)amide] |  | 100 to 1000 | 100 to 1000 |  | 
9 | Cc1ccc(NC(=O)[N-]c2c[n+](Cc3ccc(-c4c(C)noc4C)cn3)no2)cc1C(F)(F)F [Example 158, (3-((5-(3,5-dimethylisoxazol-4-yl)pyridin-2-yl)methyl)-1,2,3-oxadiazol-3-ium-5-yl)((4-methyl-3-(trifluoromethyl)phenyl)carbamoyl)amide] |  | < 100 | 100 to 1000 |  | 
10 | O=C([N-]c1c[n+](Cc2ccc(-c3cncnc3C(F)(F)F)cn2)no1)Nc1cccc(C(F)(F)F)c1 [Example 131, ((3-(trifluoromethyl)phenyl)carbamoyl)(3-((5-(4-(trifluoromethyl)pyrimidin-5-yl)pyridin-2-yl)methyl)-1,2,3-oxadiazol-3-ium-5-yl)amide] | < 100 | < 100 |  |  | 
11 | C[C@@H](c1ccc(-c2cncnc2)cc1)[n+]1cc([N-]C(=O)Nc2cccc(C(F)(F)F)c2)on1 [Example 74, (S)-(3-(1-(4-(pyrimidin-5-yl)phenyl)ethyl)-1,2,3-oxadiazol-3-ium-5-yl)((3-(trifluoromethyl)phenyl)carbamoyl)amide] | < 100 | 100 to 1000 |  |  | 
12 | O=C([N-]c1c[n+](Cc2ccc(-c3cncnc3)cc2)no1)Nc1cncc(C(F)(F)F)c1 [Example 57, (3-(4-(pyrimidin-5-yl)benzyl)-1,2,3-oxadiazol-3-ium-5-yl)((5-(trifluoromethyl)pyridin-3-yl)carbamoyl)amide] | < 100 | < 100 |  |  | 
13 | Cc1noc(C)c1-c1ccc(C[n+]2cc([N-]C(=O)Nc3cncc(C(F)(F)F)c3)on2)cc1 [Example 127, (3-(4-(3,5-dimethylisoxazol-4-yl)benzyl)-1,2,3-oxadiazol-3-ium-5-yl)((5-(trifluoromethyl)pyridin-3-yl)carbamoyl)amide] |  | 100 to 1000 | 100 to 1000 |  | 
14 | Cc1cnn(C)c1-c1ccc(C[n+]2cc([N-]C(=O)Nc3cncc(C(F)(F)F)c3)on2)nc1 [Example 178, (3-((5-(1,4-dimethyl-1H-pyrazol-5-yl)pyridin-2-yl)methyl)-1,2,3-oxadiazol-3-ium-5-yl)((5-(trifluoromethyl)pyridin-3-yl)carbamoyl)amide] |  | < 100 | 100 to 1000 |  | 
15 | Cc1nn(C)c(C)c1-c1ccc(C[n+]2cc([N-]C(=O)Nc3cccc(C(F)(F)F)c3)on2)nc1 [Example 143, ((3-(trifluoromethyl)phenyl)carbamoyl)(3-((5-(1,3,5-trimethyl-1H-pyrazol-4-yl)pyridin-2-yl)methyl)-1,2,3-oxadiazol-3-ium-5-yl)amide] | < 100 | 100 to 1000 |  |  | 
16 | Cn1cc(-c2cccc(C[n+]3cc([N-]C(=O)Nc4cccc(C(F)(F)F)c4)on3)c2)cn1 [Example 52, (3-(3-(1-methyl-1H-pyrazol-4-yl)benzyl)-1,2,3-oxadiazol-3-ium-5-yl)((3-(trifluoromethyl)phenyl)carbamoyl)amide] |  | 100 to 1000 | 100 to 1000 |  | 
17 | Cc1noc(C)c1-c1ccc(C[n+]2cc([N-]C(=O)Nc3cncc(C4CC4)c3)on2)nc1 [Example 146, ((5-cyclopropylpyridin-3-yl)carbamoyl)(3-((5-(3,5-dimethylisoxazol-4-yl)pyridin-2-yl)methyl)-1,2,3-oxadiazol-3-ium-5-yl)amide] |  | 100 to 1000 | 100 to 1000 |  | 
18 | Cc1cnccc1-c1ccc(C[n+]2cc([N-]C(=O)Nc3cccc(C(F)(F)F)c3)on2)nc1 [Example 163, (3-((3′-methyl-[3,4′-bipyridin]-6-yl)methyl)-1,2,3-oxadiazol-3-ium-5-yl)((3-(trifluoromethyl)phenyl)carbamoyl)amide] |  | < 100 | 100 to 1000 |  | 
19 | Cc1ncnc(C)c1-c1ccc(C[n+]2cc([N-]C(=O)Nc3cncc(C(F)(F)F)c3)on2)nc1 [Example 132, (3-((5-(4,6-dimethylpyrimidin-5-yl)pyridin-2-yl)methyl)-1,2,3-oxadiazol-3-ium-5-yl)((5-(trifluoromethyl)pyridin-3-yl)carbamoyl)amide] |  | 100 to 1000 | 100 to 1000 |  | 
20 | Cc1ncccc1-c1ccc(C[n+]2cc([N-]C(=O)Nc3cccc(C(F)(F)F)c3)on2)nc1 [Example 138, (3-((2′-methyl-[3,3′-bipyridin]-6-yl)methyl)-1,2,3-oxadiazol-3-ium-5-yl)((3-(trifluoromethyl)phenyl)carbamoyl)amide] | < 100 | < 100 |  |  | 
21 | Cc1ncnc(C)c1-c1ccc(C[n+]2cc([N-]C(=O)Nc3cncc(C(F)(F)F)c3)on2)cc1 [Example 187, (3-(4-(4,6-dimethylpyrimidin-5-yl)benzyl)-1,2,3-oxadiazol-3-ium-5-yl)((5-(trifluoromethyl)pyridin-3-yl)carbamoyl)amide] |  | 1000 to 20000 | 100 to 1000 |  | 
22 | Cc1noc(C)c1-c1ccc([C@H](C)[n+]2cc([N-]C(=O)Nc3ccnc(C(F)(F)F)c3)on2)cc1 [Example 191, (S)-(3-(1-(4-(3,5-dimethylisoxazol-4-yl)phenyl)ethyl)-1,2,3-oxadiazol-3-ium-5-yl)((2-(trifluoromethyl)pyridin-4-yl)carbamoyl)amide] |  |  |  | 100 to 1000 | 100 to 1000
23 | Cc1ncnc(C)c1-c1ccc(C[n+]2cc([N-]C(=O)Nc3cccc(C4CC4)c3)on2)nc1 [Example 182, ((3-cyclopropylphenyl)carbamoyl)(3-((5-(4,6-dimethylpyrimidin-5-yl)pyridin-2-yl)methyl)-1,2,3-oxadiazol-3-ium-5-yl)amide] |  | 100 to 1000 | 100 to 1000 |  | 
24 | Cc1ncnc(C)c1-c1ccc([C@@H](C)[n+]2cc(NC(=O)Nc3ccnc(C(F)(F)F)c3)on2)cc1 [Example 188, (R)-(3-(1-(4-(4,6-dimethylpyrimidin-5-yl)phenyl)ethyl)-1,2,3-oxadiazol-3-ium-5-yl)((2-(trifluoromethyl)pyridin-4-yl)carbamoyl)amide] |  | < 100 | < 100 |  | 
25 | Cc1ncn(C)c1-c1ccc(C[n+]2cc([N-]C(=O)Nc3cncc(C(F)(F)F)c3)on2)nc1 [Example 140, (3-((5-(1,4-dimethyl-1H-imidazol-5-yl)pyridin-2-yl)methyl)-1,2,3-oxadiazol-3-ium-5-yl)((5-(trifluoromethyl)pyridin-3-yl)carbamoyl)amide] |  | 1000 to 20000 | 100 to 1000 |  | 
26 | Cc1ncnc(C)c1-c1ccc(C[n+]2cc([N-]C(=O)Nc3ccnc(C(F)(F)F)c3)on2)cc1 [Example 185, (3-(4-(4,6-dimethylpyrimidin-5-yl)benzyl)-1,2,3-oxadiazol-3-ium-5-yl)((2-(trifluoromethyl)pyridin-4-yl)carbamoyl)amide] | < 100 | < 100 |  |  | 
27 | Cc1noc(C)c1-c1ccc(C[n+]2cc([N-]C(=O)Nc3cccc(C(F)(F)F)c3)on2)nn1 [Example 173, (3-((6-(3,5-dimethylisoxazol-4-yl)pyridazin-3-yl)methyl)-1,2,3-oxadiazol-3-ium-5-yl)((3-(trifluoromethyl)phenyl)carbamoyl)amide] | < 100 | < 100 |  |  | 
28 | O=C([N-]c1c[n+](Cc2cccc(Br)c2)no1)Nc1cccc(C(F)(F)F)c1 [Example 46, (3-(3-bromobenzyl)-1,2,3-oxadiazol-3-ium-5-yl)((3-(trifluoromethyl)phenyl)carbamoyl)amide] |  | 1000 to 20000 | 100 to 1000 |  | 
